Experimental findings from PubChem BioAssay (NCI) are described below.

“And” between values parts separate entries of the source, which are not always exact repeats. Identical values can stand only once.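 Exposure lasted 48 hours, with cells grown in 96-well plates and compounds tested at five concentrations. The concentration for full growth arrest is given as TGI.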

Assay in all cases: NCI anticancer screen, dose series, 48 h
Assay [1] has as its system MDA-MB-231 breast.
Assay [2] has as its system T-47D breast.
Assay [3] relates to 786-0 renal.
The subject of assay [4] is MOLT-4 leukemia.
Assay [5] relates to SNB-75 CNS.
Assay [6] relates to NCI-H460 lung.
Assay [7] deals with HOP-62 NSCLC.
In assay [8] the test system is HCT-116 colon.
Assay [9] concerns MDA-MB-435.
In assay [10] the test system is COLO 205 colon.

With `C/C=C/[C@@]1(OC(=O)c2ccccc2)C[C@@H]2CCCC[C@@H]21`, the TGI in assay [1] was 36.3 µM; in assay [2] it was 36.5 µM; in [3], 31.8 µM; in [4], 40.2 µM; in [5], 27.3 µM; in assay [6] it was 34.2 µM. The TGI in [7] was 29 µM; in assay [8] it was 29.4 µM.

`CN(C)CCNc1ccc(C(=O)NCCCN(C)CCCNC(=O)c2ccc(NCCN(C)C)c3c(=O)c4ccccc4[nH]c23)c2[nH]c3ccccc3c(=O)c12`: the TGI in assay [1] is 0.388 µM; in assay [2], 2.64 µM; in assay [3] it was 1.66 µM; in [4], 2.78 µM; in [6] it was 1.43 µM; in assay [9], 0.286 µM. For the same molecule, the TGI in [7] is 1.5 µM; in [8], 0.409 µM; in assay [10], 0.727 µM.

Turning to `CC1=NN(C(=O)CSc2nnc(SCC(=O)N3N=C(C)CC3(O)c3ccccc3)s2)C(O)(c2ccccc2)C1` (configuration not stated), the TGI in assay [1], in assay [3], in assay [4], in [6], in [9] and in assay [7] was over 100 µM throughout. Moreover, the TGI in assay [8] and in assay [10] was over 100 µM in each case.

Regarding `CCC1(O)CC(OC2CC(N(C)C)C(OC3CC4OC5CC(=O)C(C)OC5OC4C(C)O3)C(C)O2)c2c(cc3c(c2O)C(=O)c2c(O)ccc(O)c2C3=O)C1C(=O)OC` (configuration not stated), the TGI in [2] is 0.0172 µM and 0.0152 µM; in assay [8], 0.0238 µM and 0.126 µM and 0.0875 µM.

As to `O=C(O)c1ccccc1.[Ag]`, the TGI in assay [2] was 5.28 µM; in assay [3] it was 32.7 µM; in [4], over 21.7 µM; in assay [5], 11.3 µM; in [6] it was 30.1 µM; in [9], 31.7 µM. For the same molecule, the TGI in assay [7] turned out to be 46.3 µM; in assay [8], 46.3 µM; in [10] it was 4.12 µM.

`C=C1C(=O)OC2/C=C(\C)C(OC(C)=O)C3OC3C(C)(O)CC(OC(=O)/C(C)=C/C)C12` (configuration not stated): the TGI in assay [3] was 16.4 µM; in assay [4], 85.6 µM; in assay [5], 97.4 µM; in assay [6], 29.1 µM; in assay [7] it was 37.4 µM; in assay [8], 5.86 µM. For the same molecule, the TGI in assay [10] was 12.9 µM.

On to `COc1ccc(Cn2c(C)nc3c2C(=O)c2ccccc2C3=O)cc1`, for which the TGI worked out at 40 µM in assay [3]; 30 µM in assay [4]; 71.9 µM in assay [5]; 9.74 µM in assay [6]; 51.7 µM in assay [7]; 13 µM in [8]. Further, in assay [10], the TGI came to 22.6 µM.

For the molecule `CC1(C)O[C@H]2Cn3c(c(C#N)c4ccccc43)[C@H]2O1`, the TGI in assay [1], in [2], in [3], in assay [5], in assay [6] and in assay [9] was over 100 µM in each case. Besides, the TGI in assay [7], in [8] and in assay [10] was over 100 µM throughout.

Regarding `CC12CC3C(CC1SCC(=O)O2)C3(C)C` (configuration not stated), the TGI in assay [3], in assay [4], in [5], in assay [6], in assay [8] and in assay [10] was over 100 µM in each case.

As to `COc1cc(CCc2cccnc2)cc(OC)c1OC`, the TGI in assay [3], in [4], in [5], in assay [6], in assay [7] and in assay [8] was over 100 µM each time. The TGI in [10] was over 100 µM.

`COc1c2c(c3c(c1C1OC(C)[C@@H](C)O1)CC(C)(C)O3)C(=O)c1ccccc1C2=O` (some centres not stated): the TGI in [3], in assay [5], in assay [6], in assay [7], in assay [8] and in [10] was over 100 µM in each case.

As for `CC(=O)OCC1OC(Nc2[nH]c(=O)n(C)c(=O)c2-c2csc(N)n2)C(OC(C)=O)C(OC(C)=O)C1OC(C)=O` (configuration not stated), the TGI in assay [3], in assay [4], in [5], in assay [6], in assay [7] and in [8] was over 100 µM in each case. Further, in [10], the TGI was over 100 µM.

Turning to `Cc1nc2c(=S)[nH]ncc2[nH]1`, the TGI in assay [1], in assay [2], in [3], in assay [5], in assay [9] and in [7] was over 100 µM each time. Further, the TGI in assay [8] and in assay [10] was over 100 µM throughout.

Turning to `COc1ccc(-c2nc(N)c(C#N)c3c2CCS(=O)(=O)c2ccc(C)cc2-3)cc1OC`, the TGI in assay [1] is over 100 µM; in [2], over 100 µM; in assay [3], over 100 µM; in [5], 69.7 µM; in [6], over 100 µM; in assay [9], 91.6 µM. Moreover, the TGI is over 100 µM in assay [7], over 100 µM in assay [8] and 79.5 µM in assay [10].

Regarding `Cn1cnc([N+](=O)[O-])c1Sc1nc2cc(Cl)c(F)cc2[nH]1`, the TGI in [4] is 6.29 µM; in [5], 39.3 µM; in assay [6] it was 27.7 µM; in assay [7] it was over 100 µM; in assay [8], 20.6 µM; in [10] it was 22 µM.

Consider `COc1cccc2c1OC1c3ccccc3OCC1C2` (configuration not stated), for which the TGI is over 100 µM in assay [1]; over 100 µM in [2]; over 100 µM in assay [3]; over 100 µM in assay [4]; 20.6 µM in assay [5]; over 100 µM in assay [9]. For the same molecule, the TGI in assay [7], in assay [8] and in [10] was over 100 µM throughout.

For the molecule `O=C(Nc1cccc2ccccc12)Oc1ccccc1C1CCCCC1`, the TGI in assay [4] came out at 55.3 µM; in assay [5], 29.8 µM; in [6] it was 33 µM; in [7], 33.1 µM; in assay [8] it was 32.2 µM.
